{
  "source": "patent US9988348B1",
  "about": "“Synthesis and antimicrobial use of a trithiocarbonate derivative” (KING SAUD UNIVERSITY, priority 2017, dated 2018)",
  "assay_in_all_cases": "microdilution assay, minimal inhibitory concentration",
  "assay_type_in_all_cases": "cell-based",
  "key": {"[1]": {"system": "Cryptococcus neoformans Wild strain", "details": "C. neoformasn, water-soluble form", "protocol": "(§1) To evaluate antimicrobial activity of the compound 4, synthesized in our laboratory as novel anti-bacterial and anti-fungal agents, the inhibition zone diameter (mm) and the minimal inhibitory concentration were determined according to (Andrews 2001; Hudzicki 2009). The test carried out on several clinical microorganisms included Gram positive bacteria (Staphylococcus aureus ATCC and Streptococcus mutans ATCC 35668), Gram negative bacteria (Escherichia coli ATCC 25922, Salmonella typhimurium ATCC 14028 and Neisseria meningitides ATCC 1302); yeasts (Candid albicans ATCC 60193, Cryptococcus neoformans Wild strain and Candida parapsilosus ATCC 22019) and molds (Aspergillus fumigatus AUMC 8794, Penicillum chrysogenum AUMC 9476 and Fusarium sp.)\n(§2) The minimal inhibitory concentration (MIC) of compound 4 (water-soluble form) was determined by a microdilution assay, using Mueller-Hinton broth (for bacteria) and Potato dextrose broth (for fungi). The compound 4 was dissolved in sterile culture broth (2 mg/mL). Two fold serial dilutions were carried out to obtain concentrations ranging from 2 to 0.008 mg/mL. 95 μL of each dilution were added in 96-well plates, then each well was inoculated with 5 μL of inoculation microbial suspension (5×10^8 colony form unit (CFU)/ml). The plates were incubated at suitable conditions according to tested microorganism. After the incubation, the microbial growth was detected in the wells by p-iodonitrotetrazolium violet (Sigma, USA) reagent. Each well received 20 μL of the reagent (0.5 mg/ml) and was then incubated at 37±1° C. for 30 min. A violet color indicated microbial growth in the well. The minimal inhibitory concentration (mg/ml) of the compound 4 was estimated as the lowest concentration that inhibited microbial growth."}, "[2]": {"system": "Neisseria meningitides ATCC 1302", "details": "ATCC1302, N. meningitides, water-soluble form", "protocol": "as §1, §2"}, "[3]": {"system": "Penicillum chrysogenum AUMC 9476", "details": "P. chrysoginum; water-soluble form", "protocol": "as §1, §2"}, "[4]": {"system": "Escherichia coli ATCC 25922", "details": "ATCC25922, E. coli, water-soluble form", "protocol": "as §1, §2"}, "[5]": {"system": "Staphylococcus aureus ATCC", "details": "S. aureus, water-soluble form", "protocol": "as §1, §2"}, "[6]": {"system": "Candid albicans ATCC 60193", "details": "Candida albicans, ATCC60193; C. albicans; water-soluble form", "protocol": "as §1, §2"}, "Fusarium sp.": {"system": "Fusarium sp.", "details": "water-soluble form", "protocol": "as §1, §2"}, "[7]": {"system": "Salmonella typhimurium ATCC 14028", "details": "Salmonella enterica; Sa. typhimurium; water-soluble form", "protocol": "as §1, §2"}, "[8]": {"system": "Streptococcus mutans ATCC 35668", "details": "ATCC35668, S. mutans, water-soluble form", "protocol": "as §1, §2"}, "[9]": {"system": "Candida parapsilosus ATCC 22019", "details": "ATCC22019, C. parasilosus, water-soluble form", "protocol": "as §1, §2"}, "[10]": {"system": "Aspergillus fumigatus AUMC 8794", "details": "AUMC8794, A. fumigatus, water-soluble form", "protocol": "as §1, §2"}},
  "data": [
    {"molecule": "CCOC(=O)CSC(=S)SCC(=O)OCC", "note": "[Compound 4, diethyl 2,2′-(thiocarbonylbis(sulfanediyl))diacetate]", "values": [
      {"measurement": "MIC", "setting": "[1]", "result": 31.2, "unit": "µg/mL"},
      {"measurement": "MIC", "setting": "[2]", "result": 62.5, "unit": "µg/mL"},
      {"measurement": "MIC", "setting": "[3]", "result": 31.2, "unit": "µg/mL"},
      {"measurement": "MIC", "setting": "[4]", "result": 1000, "unit": "µg/mL"},
      {"measurement": "MIC", "setting": "[5]", "result": 2000, "unit": "µg/mL"},
      {"measurement": "MIC", "setting": "[6]", "result": 62.5, "unit": "µg/mL"},
      {"measurement": "MIC", "setting": "Fusarium sp.", "result": 31.2, "unit": "µg/mL"},
      {"measurement": "MIC", "setting": "[7]", "result": 2000, "unit": "µg/mL"},
      {"measurement": "MIC", "setting": "[8]", "result": 62.5, "unit": "µg/mL"},
      {"measurement": "MIC", "setting": "[9]", "result": 50, "unit": "µg/mL"},
      {"measurement": "MIC", "setting": "[10]", "result": 31.2, "unit": "µg/mL"}
    ]}
  ]
}
